Laboratory results from patent US11660326B2, “Bacterial-binding peptides for treatment of infectious diseases and related inflammatory processes” (priority 2018, dated 2023).

What was measured:
[1] = Solid phase binding assay (ELISA) of biotin-labeled peptides to immobilized LTA; set-up: species or system S. aureus; settings: biotin-labeled peptide 5-20 μg/mL; LTA 5 μg/mL coated
Description: (§1) FIG. 3. Binding of biotin-labeled CD6-derived peptides to immobilized PAMPs from Gram- and Gram+ origin. Increasing concentrations (5-20 μg/mL) of biotin-labeled CD6- (PD1, PD2, PD3 and cons), DMBT1- (pbs1), and CD5- (PD1) derived peptides were added to 96-well ELISA plates sensitized with E. coli 0111:B4 LPS (A) or S. aureus LTA (B) (5 μg/mL each in PBS). Following overnight incubation at 4° C. bound peptides or proteins were developed by addition of horseradish peroxidase (HRP)-labeled streptavidin and 3,3′,5,5′-tetramethylbenzidine (TMB) substrate and further readings at OD 405-620 nm. Results are expressed as mean±SD of duplicates from one representative experiment of three performed. Statistical analysis was performed by two-way ANOVA (*,P<0.05; **, P<0.01; ***, P<0.001).
(§2) Solid Phase Binding Assays. 96-well microtiter plates (Nunc, Roskilde, Denmark) were coated overnight at 4° C. with 5 μg/mL of purified LPS (E. coli 0111:B4, Sigma L2630) or LTA (S. aureus, Sigma L2515) in PBS, and then incubated for 2 h at room temperature in blocking solution (20 mM Tris-HCl pH 7.4 plus 0.05% Tween 20 and 1% BSA). Biotin-labeled peptides/proteins (2.5-20 μg/mL) were added and incubated overnight at 4° C. in blocking solution. After extensive washing, bound peptides/proteins were detected by the addition of horseradish peroxidase (HRP)-labeled streptavidin (1:5,000 dilution; DAKO) for 1 h at room temperature. Color was developed by adding 3,3′,5,5′-tetramethylbenzidine (TMB) liquid substrate (Sigma), and optical density read at 405-620 nm.

[2] = Solid phase binding assay (ELISA) of biotin-labeled peptides to immobilized LPS; set-up: species or system E. coli; settings: biotin-labeled peptide 5-20 μg/mL; LPS 5 μg/mL coated
Description: as §1, §2

[3] = test system: mouse splenocytes exposed to LPS; experiment: LPS-induced cytokine release by mouse splenocytes; type: cell-based, C57BL/6 mice; settings: LPS 0.5 μg/mL, 48 h, peptide 0.5, 5 and 20 μg/mL
Description: FIG. 6. Effect of CD6-derived peptides on in vitro LIPS-induced cytokine release by mouse splenocytes. Total spleen cell suspensions (2×10^5) from C57BL/6 mice (n=7) were stimulated in triplicate for 48 h with LPS (0.5 μg/mL), in the presence or absence of increasing concentrations (0.5, 5, and 20 μg/mL) of CD6-derived peptides (PD1, PD2, PD3, and Pcons). Cytokine levels in culture supernatants were determined by ELISA and results expressed in pg/mL as mean±SD of triplicates. Viability was >75% at 48 h in all experimental conditions. Statistical analysis was performed using a 2-tailed Mann-Whitney test, with confidence intervals of 95% (*, P<0.05; **, P<0.01; ***, P<0.001).
Spleens from 6-8 week old C57BL/6 mice (Charles River) were disaggregated by filtering through a cell strainer and, after erythrocyte lysis, cells were resuspended in RPMI 1640 with L-glutamine (Lonza) plus 10% fetal calf serum (BioWest), 100 U/mL penicillin, 100 μg/mL streptomycin and 50 μM 2-(3 Mercaptoethanol (Merck). Cells (2×10^5) were stimulated for 48 h (at 37° C. in a humidified atmosphere with 5% CO2) in U-bottomed 96-well plates (Biofil) containing LPS (0.5 μg/mL; E. coli O111:B4), in the presence or absence of increasing peptides (0.5-20 μg/mL). Culture supernatants were harvested and mouse cytokines measured by ELISA following manufacturer's instructions (BD Biosciences OptEIA sets).

[4] = test system: mice undergoing CLP-induced septic shock; experiment: Blood and spleen bacterial load following CLP-induced sepsis; type: in vivo, C57BL/6J mice; settings: 20 h post CLP; 6 mg/kg i.v. at +1 h; vs saline control group
Description: FIG. 9. Therapeutic effect of CD6.PD3 infusion on cytokine and bacterial load levels following CLP-induced sepsis. (A) C57BL/6J mice were i.v. infused at +1 h post CLP with saline (n=7) or CD6.PD3 peptide (6 mg/kg; n=9), and cytokine plasma levels were monitored by ELISA at different time points (4 h and 20 h) thereafter. Data are expressed as mean±SD. (B) Same mouse groups as in (A) were monitored for blood and spleen bacterial load at 20 h following CLP induction. Data are expressed as mean±SD of CFU/mg (spleen) or CFU/μL (blood). In all cases, statistical differences were evaluated using a 2-tailed Student t-test (*, P<0.05).
For the assessment of bacterial load, blood and spleen samples from CLP-treated mice were collected, homogenized and diluted aseptically in sterile PBS. Serial dilutions were plated overnight on agar with 5% sheep blood (Becton Dickinson) at 37° C. Viable bacterial counts were expressed as CFU/mL (blood) or per mg (spleen).

GQVEVHFRGVW (CD6.PD3)
binding to immobilized LTA (ELISA) [1]: excelled in its ability to bind | binding to immobilized LPS (ELISA) [2]: excelled in its ability to bind | IL-1β release [3]: dose-dependent inhibitory effects | IL-6 release [3]: dose-dependent inhibitory effects | IL-10 release [3]: non-statistically significant dose-dependent increased release | CFU isolated from blood [4]: lower CFU | CFU isolated from spleen [4]: lower CFU
